Source: article PMC3809102 (Current cancer drug targets, 2010)

Experiments:
Ku70 = Ku70 (Homo sapiens, UniProt P12956); test: surface plasmon resonance; assay type: binding
SIRT1 = target: T1, SIRT1 (Homo sapiens, UniProt Q96EB6); test: cell-free SIRT1 FRET-based screening assay; assay type: biochemical
T1 sequence (Q96EB6 2-747): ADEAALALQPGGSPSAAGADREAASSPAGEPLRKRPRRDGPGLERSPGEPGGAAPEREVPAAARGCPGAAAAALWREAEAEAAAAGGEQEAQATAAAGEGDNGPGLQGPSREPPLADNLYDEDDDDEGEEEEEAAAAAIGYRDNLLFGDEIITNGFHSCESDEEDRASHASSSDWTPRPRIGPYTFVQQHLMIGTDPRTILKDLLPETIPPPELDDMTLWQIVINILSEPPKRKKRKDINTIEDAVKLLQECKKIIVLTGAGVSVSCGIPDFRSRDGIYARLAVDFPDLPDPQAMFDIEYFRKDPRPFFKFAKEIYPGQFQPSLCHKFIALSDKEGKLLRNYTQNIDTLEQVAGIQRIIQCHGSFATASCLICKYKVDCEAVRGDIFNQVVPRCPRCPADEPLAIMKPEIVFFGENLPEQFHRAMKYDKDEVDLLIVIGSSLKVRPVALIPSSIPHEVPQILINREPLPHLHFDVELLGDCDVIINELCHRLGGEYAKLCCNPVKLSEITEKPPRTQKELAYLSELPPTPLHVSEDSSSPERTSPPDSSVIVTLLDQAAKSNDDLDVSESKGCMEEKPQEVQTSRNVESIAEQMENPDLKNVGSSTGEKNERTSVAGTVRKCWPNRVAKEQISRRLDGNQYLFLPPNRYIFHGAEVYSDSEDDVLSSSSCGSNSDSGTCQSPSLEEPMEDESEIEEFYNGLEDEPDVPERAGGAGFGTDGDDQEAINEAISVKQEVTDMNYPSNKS

Ku70, sequence (P12956 2-609): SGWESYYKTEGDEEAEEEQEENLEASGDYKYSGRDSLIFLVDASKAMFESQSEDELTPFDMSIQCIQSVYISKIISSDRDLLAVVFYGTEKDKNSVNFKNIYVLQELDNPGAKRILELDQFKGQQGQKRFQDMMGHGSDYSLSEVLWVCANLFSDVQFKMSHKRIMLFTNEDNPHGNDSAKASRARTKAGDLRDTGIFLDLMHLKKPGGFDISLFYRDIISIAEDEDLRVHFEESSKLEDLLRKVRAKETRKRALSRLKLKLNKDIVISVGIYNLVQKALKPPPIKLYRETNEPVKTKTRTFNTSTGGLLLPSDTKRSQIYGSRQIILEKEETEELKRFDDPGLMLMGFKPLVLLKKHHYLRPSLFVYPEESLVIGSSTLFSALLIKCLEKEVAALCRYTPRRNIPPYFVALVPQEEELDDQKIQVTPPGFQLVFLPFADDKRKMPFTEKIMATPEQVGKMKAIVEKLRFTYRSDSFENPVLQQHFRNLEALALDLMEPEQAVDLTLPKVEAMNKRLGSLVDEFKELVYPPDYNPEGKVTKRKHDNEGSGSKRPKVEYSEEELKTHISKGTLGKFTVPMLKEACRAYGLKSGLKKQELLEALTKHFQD

Compound	Kd (Ku70) [µM]	cell-free SIRT1 FRET-based screening assay (Cayman kit), 15 μM (SIRT1)
MI-319	0.17	
COc1ccc(C2=NC(c3ccc(Cl)cc3)C(c3ccc(Cl)cc3)N2C(=O)N2CCNC(=O)C2)c(OC(C)C)c1 (racemic) [Nutlin-3, (±)-4-[4,5-Bis(4-chlorophenyl)-2-(2-isopropoxy-4-methoxy-phenyl)-4,5-dihydro-imidazole-1-carbonyl]-piperazin-2-one]	169	MI-219, MI-319 and Nutlin-3 significantly suppressed SIRT1 activity while the inactive analog MI-10 did not
